Results from ChEMBL document CHEMBL1144295, “Active site directed inhibitors of replication-specific bacterial DNA polymerases” (Bioorg Med Chem Lett, 2005).

Columns and labels:
[1] = biological target: T1, DNA polymerase III PolC-type (Bacillus subtilis (strain 168), UniProt P13267); test: Inhibitory constant against DNA polymerases IIIC produced by Bacillus subtilis; (a)
[2] = biological target: T2, DNA polymerase III subunit alpha (Escherichia coli K-12, UniProt P10443); test: Inhibition against DNA polymerases IIIE from Escherichia coli; (a); IN=<10% inhibition at highest concentration tested
[3] = biological target: T3, DNA polymerase III subunit alpha (Bacillus subtilis (strain 168), UniProt O34623); test: Inhibition of DNA polymerases IIIE from Bacillus subtilis; (a); IN=<10% inhibition at highest concentration tested
T3 sequence (O34623 whole entry): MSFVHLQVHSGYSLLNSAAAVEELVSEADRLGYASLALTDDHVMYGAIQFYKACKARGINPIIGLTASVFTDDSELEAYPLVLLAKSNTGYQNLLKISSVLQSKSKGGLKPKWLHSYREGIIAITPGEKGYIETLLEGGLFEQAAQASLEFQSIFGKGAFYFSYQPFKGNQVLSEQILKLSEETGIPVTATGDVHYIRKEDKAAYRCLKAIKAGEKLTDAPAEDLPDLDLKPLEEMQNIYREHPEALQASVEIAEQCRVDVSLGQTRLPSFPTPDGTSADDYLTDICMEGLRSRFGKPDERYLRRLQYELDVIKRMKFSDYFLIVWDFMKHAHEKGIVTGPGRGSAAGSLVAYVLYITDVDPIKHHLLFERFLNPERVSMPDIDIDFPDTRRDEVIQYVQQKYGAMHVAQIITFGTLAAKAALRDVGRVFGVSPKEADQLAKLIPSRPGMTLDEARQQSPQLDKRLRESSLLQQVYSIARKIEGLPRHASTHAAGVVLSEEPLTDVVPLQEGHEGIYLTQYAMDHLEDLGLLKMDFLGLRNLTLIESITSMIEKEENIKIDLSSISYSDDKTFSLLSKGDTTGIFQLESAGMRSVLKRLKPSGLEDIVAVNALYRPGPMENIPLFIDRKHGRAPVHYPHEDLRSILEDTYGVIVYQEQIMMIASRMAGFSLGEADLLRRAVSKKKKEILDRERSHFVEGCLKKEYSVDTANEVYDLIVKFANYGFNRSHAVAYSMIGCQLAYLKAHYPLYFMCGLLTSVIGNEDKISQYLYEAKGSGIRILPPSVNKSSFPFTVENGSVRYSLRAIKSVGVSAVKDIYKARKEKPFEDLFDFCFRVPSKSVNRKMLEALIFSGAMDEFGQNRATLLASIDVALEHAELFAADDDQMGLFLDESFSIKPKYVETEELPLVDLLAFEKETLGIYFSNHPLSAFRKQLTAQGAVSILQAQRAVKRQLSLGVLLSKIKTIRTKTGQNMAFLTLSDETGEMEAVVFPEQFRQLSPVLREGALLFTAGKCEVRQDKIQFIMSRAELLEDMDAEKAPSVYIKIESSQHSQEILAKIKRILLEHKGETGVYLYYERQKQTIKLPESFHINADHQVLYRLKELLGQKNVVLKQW

[4] = biological target: T1, DNA polymerase III PolC-type; test: Inhibition of DNA polymerases IIIC produced by Bacillus subtilis; (a); IN=<10% inhibition at highest concentration tested
[5] = biological target: T2, DNA polymerase III subunit alpha; test: Inhibitory constant against DNA polymerases IIIE from Escherichia coli; (a)

T2 sequence (P10443 whole entry): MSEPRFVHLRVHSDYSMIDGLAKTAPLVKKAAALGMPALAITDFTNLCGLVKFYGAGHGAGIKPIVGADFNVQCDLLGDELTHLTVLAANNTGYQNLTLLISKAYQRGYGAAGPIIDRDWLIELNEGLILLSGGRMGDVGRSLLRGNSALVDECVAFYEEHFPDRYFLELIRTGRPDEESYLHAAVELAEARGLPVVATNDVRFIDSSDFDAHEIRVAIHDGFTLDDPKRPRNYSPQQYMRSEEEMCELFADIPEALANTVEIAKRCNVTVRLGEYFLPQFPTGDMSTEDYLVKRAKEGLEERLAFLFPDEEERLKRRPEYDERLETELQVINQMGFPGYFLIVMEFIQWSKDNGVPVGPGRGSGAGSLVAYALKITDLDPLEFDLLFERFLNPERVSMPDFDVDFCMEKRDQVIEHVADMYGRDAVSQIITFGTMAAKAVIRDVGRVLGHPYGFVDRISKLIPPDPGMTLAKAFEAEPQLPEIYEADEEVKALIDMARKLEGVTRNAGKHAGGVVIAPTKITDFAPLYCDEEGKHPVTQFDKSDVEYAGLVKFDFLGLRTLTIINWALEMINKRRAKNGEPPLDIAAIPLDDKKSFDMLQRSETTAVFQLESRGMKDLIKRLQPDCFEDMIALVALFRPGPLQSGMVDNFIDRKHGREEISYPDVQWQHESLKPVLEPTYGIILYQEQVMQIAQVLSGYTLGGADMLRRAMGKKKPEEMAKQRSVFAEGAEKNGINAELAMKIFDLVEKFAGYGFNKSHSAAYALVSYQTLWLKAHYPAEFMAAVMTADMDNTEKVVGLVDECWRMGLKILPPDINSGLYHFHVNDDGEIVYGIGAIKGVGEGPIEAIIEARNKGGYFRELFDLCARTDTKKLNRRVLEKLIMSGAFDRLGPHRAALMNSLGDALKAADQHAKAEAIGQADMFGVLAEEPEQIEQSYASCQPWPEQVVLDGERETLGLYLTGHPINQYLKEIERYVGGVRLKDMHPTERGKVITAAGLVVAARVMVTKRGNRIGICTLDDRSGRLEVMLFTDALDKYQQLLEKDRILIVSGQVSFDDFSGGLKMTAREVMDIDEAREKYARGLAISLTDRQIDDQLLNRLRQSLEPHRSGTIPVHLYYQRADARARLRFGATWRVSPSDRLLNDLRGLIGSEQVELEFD
T1 sequence (P13267 whole entry): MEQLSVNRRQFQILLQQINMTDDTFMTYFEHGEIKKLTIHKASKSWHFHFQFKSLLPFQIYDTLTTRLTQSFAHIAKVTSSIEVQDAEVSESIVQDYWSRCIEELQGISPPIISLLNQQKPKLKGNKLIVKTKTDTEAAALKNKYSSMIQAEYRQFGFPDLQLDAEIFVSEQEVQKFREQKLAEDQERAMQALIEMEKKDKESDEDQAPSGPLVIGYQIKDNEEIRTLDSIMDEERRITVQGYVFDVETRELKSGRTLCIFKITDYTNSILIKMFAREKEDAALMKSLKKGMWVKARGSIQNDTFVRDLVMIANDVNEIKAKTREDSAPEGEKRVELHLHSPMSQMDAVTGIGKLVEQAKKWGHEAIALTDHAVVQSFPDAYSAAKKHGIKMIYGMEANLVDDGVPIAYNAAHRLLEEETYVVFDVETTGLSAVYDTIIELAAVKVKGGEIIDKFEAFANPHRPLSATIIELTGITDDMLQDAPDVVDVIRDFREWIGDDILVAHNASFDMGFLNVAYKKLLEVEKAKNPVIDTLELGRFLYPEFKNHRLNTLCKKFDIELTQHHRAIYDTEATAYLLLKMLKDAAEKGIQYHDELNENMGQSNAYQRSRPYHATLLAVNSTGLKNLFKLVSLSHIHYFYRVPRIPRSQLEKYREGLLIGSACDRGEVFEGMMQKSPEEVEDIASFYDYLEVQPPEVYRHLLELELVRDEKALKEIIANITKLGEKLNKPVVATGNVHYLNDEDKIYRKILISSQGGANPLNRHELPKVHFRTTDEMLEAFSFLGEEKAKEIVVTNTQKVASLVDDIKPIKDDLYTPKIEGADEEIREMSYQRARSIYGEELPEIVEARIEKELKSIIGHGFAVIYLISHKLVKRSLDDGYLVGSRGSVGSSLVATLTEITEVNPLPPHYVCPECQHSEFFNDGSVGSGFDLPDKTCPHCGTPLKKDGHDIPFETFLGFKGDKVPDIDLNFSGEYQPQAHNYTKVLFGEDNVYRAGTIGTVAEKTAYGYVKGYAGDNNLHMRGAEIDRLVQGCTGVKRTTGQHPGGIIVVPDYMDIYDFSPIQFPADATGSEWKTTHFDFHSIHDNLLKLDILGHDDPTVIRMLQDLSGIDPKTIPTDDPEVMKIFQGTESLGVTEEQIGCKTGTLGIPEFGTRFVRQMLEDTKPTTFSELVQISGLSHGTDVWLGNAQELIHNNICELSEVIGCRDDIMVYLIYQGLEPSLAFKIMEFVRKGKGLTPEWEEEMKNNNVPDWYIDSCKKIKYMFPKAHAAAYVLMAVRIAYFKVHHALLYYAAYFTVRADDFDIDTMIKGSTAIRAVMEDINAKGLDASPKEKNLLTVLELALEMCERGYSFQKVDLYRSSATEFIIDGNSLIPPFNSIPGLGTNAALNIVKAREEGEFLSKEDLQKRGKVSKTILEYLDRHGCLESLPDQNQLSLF

Compound: CCc1cc(Nc2nc(O)c3[nH]cnc3n2)ccc1C
- Ki [1]: 2700 nM
- inhibition [2]: < 10%

Compound: CCc1cc(Nc2nc(O)c3c(ncn3CCCCO)n2)ccc1C
- inhibition [3]: < 10%
- inhibition [2]: < 10%

Compound: CS(=O)(=O)CCCCCn1cnc2nc(NCc3ccc(Cl)c(Cl)c3)nc(O)c21
- Ki [1]: 280 nM

Compound: CCc1cc(Nc2nc(O)c3ncn(CCCCO)c3n2)ccc1C
- inhibition [4]: < 10%
- inhibition [3]: < 10%
- inhibition [2]: < 10%

Compound: CCOCCn1cnc2c(=O)[nH]c(NCc3ccc(Cl)c(Cl)c3)nc21
- Ki [1]: 116000 nM

Compound: CCOC(=O)CCCn1cnc2nc(NCc3ccc(Cl)c(Cl)c3)[nH]c(=O)c21
- Ki [1]: 150 nM

Compound: CC(C)C(=O)OCCCCCn1cnc2nc(NCc3ccc(Cl)c(Cl)c3)[nH]c(=O)c21
- Ki [1]: 370 nM

Compound: COCCCCCn1cnc2nc(NCc3ccc(Cl)c(Cl)c3)[nH]c(=O)c21
- Ki [1]: 70 nM

Compound: CSCCCCCn1cnc2nc(NCc3ccc(Cl)c(Cl)c3)[nH]c(=O)c21
- Ki [1]: 230 nM

Compound: OCCCCn1cnc2c(O)nc(NCc3ccc(Cl)c(Cl)c3)nc21
- Ki [1]: 712000 nM

Compound: O=C(O)CCCn1cnc2c(=O)[nH]c(NCc3ccc(Cl)c(Cl)c3)nc21
- Ki [1]: 28000 nM

Compound: O=C(O)CCCn1cnc2nc(NCc3ccc(Cl)c(Cl)c3)nc(O)c21
- Ki [1]: 170 nM

Compound: CCOC(=O)CCCn1cnc2c(O)nc(NCc3ccc(Cl)c(Cl)c3)nc21
- Ki [1]: 825000 nM

Compound: C[S+]([O-])CCCCCn1cnc2nc(NCc3ccc(Cl)c(Cl)c3)nc(O)c21 (stereo unspecified)
- Ki [1]: 93 nM

Compound: Oc1[nH]c(NCc2ccc(Cl)c(Cl)c2)nc2ncnc1-2
- Ki [1]: 720 nM

Compound: C[C@@H](O)CCCCn1cnc2nc(NCc3ccc(Cl)c(Cl)c3)[nH]c(=O)c21
- Ki [1]: 52 nM

Compound: O=c1[nH]c(NCc2ccc(Cl)c(Cl)c2)nc2ncn(CCOCCO)c12
- Ki [1]: 370 nM

Compound: CCOCCn1cnc2nc(NCc3ccc(Cl)c(Cl)c3)[nH]c(=O)c21
- Ki [1]: 330 nM

Compound: CC(=O)O[C@H](C)CCCCn1cnc2nc(NCc3ccc(Cl)c(Cl)c3)[nH]c(=O)c21
- Ki [1]: 80 nM

Compound: O=c1cc(NCc2ccc(Cl)c(CCl)c2)[nH]c(=O)[nH]1
- Ki [1]: 420 nM

Compound: CCc1cc(Nc2cc(=O)[nH]c(=O)[nH]2)ccc1C
- Ki [5]: > 323000 nM
- Ki [1]: 310 nM
